In patent publication US8282938B2 (priority 2008, dated 2012) one finds CTL activity and Specific killing data, which are given here for 15 sequences.

The test system of the first experiment is HLA-A*0201-restricted cytotoxic T lymphocytes. Details: species or system mice expressing the HLA-A*0201 molecule (HHD mice). The note with it: mouse, in vivo.
As for GMFNMLSTV [PB1_410], the CTL activity entry is reported as “high CTL activity” and the Specific killing stood at 87%.

Another experiment concerns HLA-A*2402-restricted cytotoxic T lymphocytes. Details: species or system transgenic mice expressing the HLA-A*2402 molecule (A24Tg). The note with it: mouse, in vivo.
For the sequence CFNPMIVEL [PA_8], the CTL activity result is on record as “low activity” and the Specific killing is 10%. On to EWFRNVLSI [PB1_331], for which the CTL activity result is on record as “low activity” and the Specific killing was 7%. With IFLARSALI [NP_257], the CTL activity result is reported as “low activity” and the Specific killing was 16%. As to KTTPRPLRL [PA_262], the CTL activity result is recorded as “high CTL activity” and the Specific killing is listed as 58%. For LWILDRLFF [M2_40] the same measures were “low activity” and 10%. Regarding MYQKCCTLF [PB1_688], the CTL activity entry is reported as “high CTL activity” and the Specific killing is listed as 89%. As to RYTKTTYWW [PB1_430], the CTL activity entry is recorded as “high CTL activity” and the Specific killing is on record as 96%. For SFSFGGFTF [PB2_322], the CTL activity result was “high CTL activity” and the Specific killing is listed as 38%.

As to SLLTEVETL [M2_2], the CTL activity entry is reported as “low activity”. On to SYINRTGTF [PB1_482], for which the CTL activity entry was “high CTL activity” and the Specific killing was 56%. Regarding SYLIRALTL [PB1_216], the CTL activity result is “high CTL activity” and the Specific killing is 22%. In the case of TYFEKVERL [PB2_117], the CTL activity entry is on record as “low activity” and the Specific killing came out at 13%. In the case of TYQWIIRNW [PB2_549], the CTL activity entry is “high CTL activity” and the Specific killing is listed as 96%.

Take YYLEKANKI [PA_130]: the CTL activity entry is reported as “high CTL activity” and the Specific killing was 95%.
